In patent publication KR20180046249A, “리소스퍼믹 액시드를 포함하는 구강질환 예방 또는 치료용 조성물” (주식회사 엘지생활건강, priority 2016, dated 2018):

Tests used:
Type in all cases: cell-based
PGE2 = PGE2 inhibition in LPS-stimulated macrophages (ELISA); settings: LPS 1 ㎍/ml
Streptococcus mutans = assay: Paper disc antibacterial test, Streptococcus mutans; settings: 24-48 h incubation, untreated: no inhibition
Porphyromonas gingivalis = assay: Paper disc antibacterial test, Porphyromonas gingivalis; settings: anaerobic, 24-48 h incubation, untreated: no inhibition

O=C(/C=C/c1ccc(O)c2c1[C@H](C(=O)O)[C@@H](c1ccc(O)c(O)c1)O2)O[C@H](Cc1ccc(O)c(O)c1)C(=O)O [리소스퍼믹 액시드, lithospermic acid]
PGE2 inhibition, concentration dependence (in words) (PGE2): 농도 의존적으로 PGE2를 억제하는 효과 | inhibition at 2 ppm (PGE2; Macrophage, 2ppm, 24 h, compared with LPS-only group): ~50% | inhibition at 20 ppm (PGE2; Macrophage, 20ppm, 24 h, compared with LPS-only group): ~70% | growth inhibition zone diameter (Streptococcus mutans; 10 mg/disc, 8 mm disc, 37, BHI): ~10.0 mm | zone of inhibition at 10 mg/disc (Streptococcus mutans; Streptococcus mutans, 8 mm disc, 37, BHI, read-out: growth inhibition zone diameter): 10.7 mm | growth inhibition zone diameter (Porphyromonas gingivalis; 10 mg/disc, 8 mm disc, 37, TSA Hemin Menadione medium): ~10.0 mm | zone of inhibition at 10 mg/disc (Porphyromonas gingivalis; Porphyromonas gingivalis, 8 mm disc, 37, TSA Hemin Menadione medium, read-out: growth inhibition zone diameter): 9.8 mm
